# From patent US9994594B2, “Inhibitors of arginase and their therapeutic applications” (MARS, INCORPORATED, priority 2010, dated 2018)
# Structures can show the parent of a compound that is named as a salt.
# Assays:
# arginase II (ARG II) = molecular target: T1, arginase II (ARG II) (Homo sapiens, UniProt P78540); assay: Inhibition of arginase II, spectrophotometric urea assay at 530 nm; type: biochemical; details: Formula II compounds, Table 2-A; read-out: Potency (ARG)
# T1 sequence (P78540 23-354): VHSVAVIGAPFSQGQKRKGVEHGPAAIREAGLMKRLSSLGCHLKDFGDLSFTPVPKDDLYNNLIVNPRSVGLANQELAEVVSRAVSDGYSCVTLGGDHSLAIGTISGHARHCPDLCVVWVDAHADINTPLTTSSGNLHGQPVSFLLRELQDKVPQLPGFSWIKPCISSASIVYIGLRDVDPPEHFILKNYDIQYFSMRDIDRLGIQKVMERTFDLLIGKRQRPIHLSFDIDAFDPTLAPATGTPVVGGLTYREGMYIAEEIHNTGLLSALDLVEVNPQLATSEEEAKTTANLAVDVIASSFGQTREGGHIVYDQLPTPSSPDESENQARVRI
# Method: (§1) The assay established the concentration of inhibitor that is required to reduce arginase activity by 50% (IC50).
# (§2) Inhibition of arginase I (ARG I) and arginase II (ARG II) by Formula I and Formula II compounds is followed spectrophotometrically at 530 nm. The compound to be tested is dissolved in DMSO at an initial concentration 50-fold greater than its final concentration in the cuvette. 10 μl of the stock solution is diluted in 90 μl of the assay buffer that comprises 0.1M sodium phosphate buffer containing 130 mM NaCl, pH 7.4, to which is added ovalbumin (OVA) at a concentration of 1 mg/ml. Solutions of arginase I and II are prepared in 100 mM sodium phosphate buffer, pH 7.4 containing 1 mg/ml of OVA to give an arginase stock solution at a final concentration of 100 ng/ml.
# (§3) To each well of a 96-well microtiter plate is add 40 μl of enzyme, 10 μl of an inventive compound and 10 μl of enzyme substrate (L-arginine+manganese sulfate). For wells that are used as positive controls, only the enzyme and its substrate are added, while wells used as negative controls contain only manganese sulfate.
# (§4) After incubating the microtiter plate at 37° C. for 60 minutes, 150 μl of a urea reagent obtained by combining equal proportions (1:1) of reagents A and B is added to each well of the microtiter plate to stop the reaction. The urea reagent is made just before use by combining Reagent A (10 mM o-phthaldialdehyde, and 0.4% polyoxyethylene (23) lauryl ether (w/v) in 1.8 M sulfuric acid) with Reagent B (1.3 mM primaquine diphosphate, 0.4% polyoxyethylene (23) lauryl ether (w/v), 130 mM boric acid in 3.6 M sulfuric acid). After quenching the reaction mixture, the microtiter plate is allowed to stand for an additional 10 minutes at room temperature to allow color development. The inhibition of arginase is computed by measuring the optical density (OD) of the reaction mixture at 530 nm and normalizing the OD value to percent inhibition observed in the control. The normalized OD is then used to generate a dose-response curve by plotting the normalized OD values against log [concentration] and using regression analysis to compute the IC50 values.
# human arginase I (ARG I) = molecular target: T2, human arginase I (ARG I) (Homo sapiens, UniProt P05089); assay: Inhibition of arginase I, spectrophotometric urea assay at 530 nm; type: biochemical; details: Formula II compounds, Table 2-A; read-out: Potency (ARG I)
# T2 sequence (P05089 1-322): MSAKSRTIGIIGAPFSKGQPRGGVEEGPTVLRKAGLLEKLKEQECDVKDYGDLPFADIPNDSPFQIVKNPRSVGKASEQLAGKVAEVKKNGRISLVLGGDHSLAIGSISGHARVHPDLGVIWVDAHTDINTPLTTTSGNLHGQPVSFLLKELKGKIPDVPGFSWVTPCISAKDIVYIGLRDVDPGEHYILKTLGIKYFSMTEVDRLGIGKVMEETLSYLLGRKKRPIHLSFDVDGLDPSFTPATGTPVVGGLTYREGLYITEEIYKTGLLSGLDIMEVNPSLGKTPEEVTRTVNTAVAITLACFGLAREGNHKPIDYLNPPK
# Method: as §1, §2, §3, §4
IC50 (arginase II (ARG II)) [nM],IC50 (human arginase I (ARG I)) [nM],Structure (SMILES)
1000 to 2000,1000 to 2000,"NC(CCCCB(O)O)(C(=O)O)C1CCN(C(=O)NCCc2ccc(F)cc2)CC1 (stereo not drawn) [33-A, 2-amino-6-borono-2-(1-{[2-(4-fluorophenyl)ethyl]-carbamoyl}piperidin-4-yl)hexanoic acid hydrochloride]"
251 to 1000,251 to 1000,"NC(CCCCB(O)O)(C(=O)O)C1CCN(C(=S)Nc2ccc(Cl)cc2)CC1 (stereo not drawn) [34-A, 2-amino-6-borono-2-(1-{[(4-chlorophenyl)amino]carbonothioyl}piperidin-4-yl)hexanoic acid hydrochloride]"
251 to 1000,251 to 1000,"NC(CCCCB(O)O)(C(=O)O)C1CCN(C(=S)Nc2ccc(Cl)cc2)C1 [35-A, 2-amino-6-borono-2-((S)-1-(4-chlorophenylcarbamothioyl)-pyrrolidin-3-yl)hexanoic acid hydrochloride]"
2000 to 5000,251 to 1000,"NC(CCCCB(O)O)(C(=O)O)C1CCN(C(=O)Nc2ccc(Cl)cc2)C1 [36-A, 2-amino-6-borono-2-((S)-1-(4-chlorophenylcarbamoyl)pyrrolidin-3-yl)hexanoic acid hydrochloride]"
251 to 1000,251 to 1000,"Cc1ccc(CN2CC[C@@H](C(N)(CCCCB(O)O)C(=O)O)C2)cc1 (stereo partly drawn) [Example 39-A, 2-Amino-6-borono-2-((R)-1-(4-methylbenzyl)pyrrolidin-3-yl)hexanoic acid dihydrochloride]"
1000 to 2000,251 to 1000,"NC(CCCCB(O)O)(C(=O)O)C1CCN(C(=O)Nc2ccc(Cl)c(Cl)c2)CC1 (stereo not drawn) [Example 42-A, 2-amino-6-borono-2-(1-(3,4-dichlorophenylcarbamoyl)piperidin-4-yl)hexanoic acid]"
1000 to 2000,251 to 1000,"NC(CCCCB(O)O)(C(=O)O)C1CCN(C(=S)NCc2ccc(Cl)cc2)CC1 (stereo not drawn) [Example 43-A, 2-amino-6-borono-2-(1-(4-chlorobenzylcarbamothioyl)piperidin-4-yl)hexanoic acid]"
1000 to 2000,251 to 1000,"Cc1ccc(NC(=S)N2CCC(C(N)(CCCCB(O)O)C(=O)O)CC2)cc1Cl (stereo not drawn) [Example 44-A, 2-amino-6-borono-2-(1-(3-chloro-4-methylphenylcarbamothioyl)piperidin-4-yl)hexanoic acid]"
1000 to 2000,251 to 1000,"NC(CCCCB(O)O)(C(=O)O)C1CCN(C(=S)Nc2cccc3ccccc23)CC1 (stereo not drawn) [Example 45-A, 2-amino-6-borono-2-(1-(naphthalen-1-ylcarbamothioyl)piperidin-4-yl)hexanoic acid]"
0.1 to 250,0.1 to 250,"NC(CCCCB(O)O)(C(=O)O)C1CCN(CCCc2ccc(Cl)cc2)CC1 (stereo not drawn) [Example 46-A, 2-amino-6-borono-2-(1-(3-(4-chlorophenyl)propyl)piperidin-4-yl)hexanoic acid]"

# More lines, now with the values behind:
Structure (SMILES),IC50 (arginase II (ARG II)) [nM],IC50 (human arginase I (ARG I)) [nM]
"NC(CCCCB(O)O)(C(=O)O)[C@@H]1CCN(S(=O)(=O)c2ccccc2[N+](=O)[O-])C1 (stereo partly drawn) [Example 40-A, 2-amino-6-borono-2-((R)-1-(2-nitrophenylsulfonyl)pyrrolidin-3-yl)hexanoic acid]",251 to 1000,251 to 1000
"NC(CCCCB(O)O)(C(=O)O)C1CCN(CCc2ccccc2)CC1 (stereo not drawn) [Example 41-A, 2-amino-6-borono-2-(1-phenethylpiperidin-4-yl)hexanoic acid]",0.1 to 250,251 to 1000
"NC(CCCCB(O)O)(C(=O)O)C1CCN(CCc2ccc(Cl)cc2Cl)CC1 (stereo not drawn) [Example 47-A, 2-amino-6-borono-2-(1-(2,4-dichlorophenethyl)piperidin-4-yl)hexanoic acid]",251 to 1000,0.1 to 250
"NC(CCCCB(O)O)(C(=O)O)C1CCN(Cc2ccc(F)c(F)c2)CC1 (stereo not drawn) [Example 48-A, 2-amino-6-borono-2-(1-(3,4-difluorobenzyl)piperidin-4-yl)hexanoic acid]",251 to 1000,0.1 to 250
"NC(CCCCB(O)O)(C(=O)O)C1CCN(Cc2ccc(Cl)c(F)c2)CC1 (stereo not drawn) [Example 49-A, 2-amino-6-borono-2-(1-(4-chloro-3-fluorobenzyl)piperidin-4-yl)hexanoic acid]",0.1 to 250,251 to 1000
"NC(CCCCB(O)O)(C(=O)O)C1CCN(CCCc2cc(F)cc(Cl)c2)CC1 (stereo not drawn) [Example 50-A, 2-amino-6-borono-2-(1-(3-(3-chloro-5-fluorophenyl)propyl)piperidin-4-yl)hexanoic acid]",251 to 1000,0.1 to 250
"NC(CCCCB(O)O)(C(=O)O)C1CCN(Cc2ccc(F)c3ccccc23)CC1 (stereo not drawn) [Example 51-A, 2-amino-6-borono-2-(1-((4-fluoronaphthalen-1-yl)methyl)piperidin-4-yl)hexanoic acid]",251 to 1000,0.1 to 250
"NC(CCCCB(O)O)(C(=O)O)C1CCN(CCCc2ccc(F)cc2F)CC1 (stereo not drawn) [Example 52-A, 2-amino-6-borono-2-(1-(3-(2,4-difluorophenyl)propyl)piperidin-4-yl)hexanoic acid dihydrochloride]",0.1 to 250,0.1 to 250
"NC(CCCCB(O)O)(C(=O)O)C1CCN(Cc2ccccc2C(F)(F)F)CC1 (stereo not drawn) [Example 53-A, 2-amino-6-borono-2-(1-(2-(trifluoromethyl)benzyl)piperidin-4-yl)hexanoic acid dihydrochloride]",251 to 1000,251 to 1000
"NC(CCCCB(O)O)(C(=O)O)C1CCN(Cc2ccccc2N2CCOCC2)CC1 (stereo not drawn) [Example 54-A, 2-amino-6-borono-2-(1-(2-morpholinobenzyl)piperidin-4-yl)hexanoic acid dihydrochloride]",251 to 1000,0.1 to 250
"NC(CCCCB(O)O)(C(=O)O)C1CCN(Cc2ccccc2-c2ccccc2)CC1 (stereo not drawn) [Example 55-A, 2-amino-2-(1-(biphenyl-2-ylmethyl)piperidin-4-yl)-6-boronohexanoic acid dihydrochloride]",0.1 to 250,0.1 to 250
"NC(CCCCB(O)O)(C(=O)O)C1CCN(Cc2cccc3cccnc23)CC1 (stereo not drawn) [Example 56-A, 2-amino-6-borono-2-(1-(quinolin-8-ylmethyl)piperidin-4-yl)hexanoic acid dihydrochloride]",251 to 1000,0.1 to 250
"NC(CCCCB(O)O)(C(=O)O)C1CCN(Cc2ccccc2-c2cccnc2)CC1 (stereo not drawn) [Example 57-A, 2-amino-6-borono-2-(1-(2-(pyridin-3-yl)benzyl)piperidin-4-yl)hexanoic acid dihydrochloride]",251 to 1000,0.1 to 250
"COc1cccc(-c2ccccc2CN2CCC(C(N)(CCCCB(O)O)C(=O)O)CC2)c1 (stereo not drawn) [Example 58-A, 2-amino-6-borono-2-(1-((3′-methoxybiphenyl-2-yl)methyl)piperidin-4-yl)hexanoic acid dihydrochloride]",251 to 1000,0.1 to 250
"NC(CCCCB(O)O)(C(=O)O)C1CCN(CCc2ccc(F)c(F)c2)CC1 (stereo not drawn) [Example 59-A, 2-amino-6-borono-2-(1-(3,4-difluorophenethyl)piperidin-4-yl)hexanoic acid acid dihydrochloride]",0.1 to 250,0.1 to 250
"NC(CCCCB(O)O)(C(=O)O)C1CCN(Cc2cccc3c2OCCC3)CC1 (stereo not drawn) [Example 60-A, 2-amino-6-borono-2-(1-(chroman-8-ylmethyl)piperidin-4-yl)hexanoic acid dihydrochloride]",0.1 to 250,0.1 to 250
"Cc1cc(CN2CCC(C(N)(CCCCB(O)O)C(=O)O)CC2)n(C)n1 (stereo not drawn) [Example 62-A, 2-amino-6-borono-2-(1-((1,3-dimethyl-1H-pyrazol-5-yl)methyl)piperidin-4-yl)hexanoic acid dihydrochloride]",251 to 1000,251 to 1000
